How the values were obtained:
[1] = system: organotypic neonatal rat or mouse cerebellar slice culture; assay: Myelination in organotypic cerebellar slice culture, measured by myelin basic protein (MBP) immunoreactivity; type: cell-based
From the text: In experiments conducted in organotypic neonatal rat or mouse cerebellar slice culture, progesterone accelerated axon myelination (13,14).

PR^lacz mice with MCAO = assay: Transient middle cerebral artery occlusion (MCAO), steroid treatment after reperfusion; type: in vivo, mouse
Experimental: In experiments conducted using progesterone receptor (PR) deficient mice (PR^−/−) compared with PR^+/− and PR^+/+ mice and both progesterone and Nestorone® were administered after ischemia and reperfusion.
In order to test the effect of steroid treatments after reperfusion, adult male PR^lacz mice were anesthetized and the middle cerebral artery (MCA) was occluded for one hour with an intraluminal filament. After ligature of the left common carotid artery, a nylon monofilament coated with thermo-melting glue was introduced through an arteriotomy performed on the external carotid artery and advanced into the internal carotid artery. Occlusion of the MCA was controlled by monitoring the cerebral blood flow within the MCA territory by laser Doppler flowmetry. The filament was withdrawn one hour after occlusion to allow reperfusion, and the common carotid artery ligature was also removed. The mice were randomly and blindly assigned to either progesterone, allopregnanolone or Nestorone®, or vehicle-treated (sesame oil; sigma). All of the steroids were initially dissolved in a small volume of ethanol and further diluted in sesame oil to obtain the desired final steroid concentrations. Injections were given interperitoneally (IP) at 1, 6, and 24 hours after MCA occlusion (MCAO) according to established neuroprotective protocols. Treated mice were killed at 48 hours after MCAO.
Cerebral infarct volumes and areas were determined after triphenyltetrazolium chloride (TTC) staining of brain sections. The details of this procedure are set forth in “Progesterone Receptors: A Key For Neuroprotection In Experimental Stroke,” Endocrinology, August 2012, 153(8), pp. 1-11, which is incorporated herein by reference thereto in its entirety. […] In FIGS. 11, 12 and 13, after the administration of progesterone and Nestorone®, in neuronal density the infarct (FIG. 11) and the penumbra (FIG. 12) can clearly be shown. In FIG. 13 the decrease in […] in the penumbra after administration of progesterone and Nestorone® is also clearly shown.

[2] = system: neural progenitor cell (NPC); assay: Neural progenitor cell proliferation, BrdU chemiluminescence ELISA; type: cell-based, rat
Experimental: In vitro studies were carried out to determine neural progenitor cell (NPC) regeneration in rats. Cell proliferation was determined by S phase incorporation of BrdU. After 4 to 6 hours starvation (medium without supplements), rNPCs were loaded with 10 μM BrdU in the presence or absence of bFGF and varying concentrations of P4 or test progestins in unsupplemented maintenance medium for 1d. The rNPCs were then processed as described previously (1, 14). After subtracting the value of the blank (without BrdU loading), data were analyzed using a one-way ANOVA, followed by a Neuman-Keuls post hoc test.

Bax/Bcl-2 = assay: In vivo apoptotic activity, Bax/Bcl-2 ratio by Western blot; conditions: indicator of in vivo apoptotic activity
From the text: The effects of various progestins on apoptosis was studied using Western blot analysis to determine the expression level of Bax, an apoptosis mediator by […] to the mitochondria to release apoptotic factors such as cytochrome c and Bcl-2. The ratio of Bax to Bcl-2 was used as an indicator of in vivo apoptotic activity.

[3] = system: primary hippocampal neurons; assay: Neuroprotection of primary hippocampal neurons against glutamate, LDH release; type: cell-based
Experimental: The effect of NES and other progestins on CNS plasticity and the neuroprotective efficacy against glutamate toxicity has also been evaluated. LDH was measured, as a well-accepted assay, to determine such effect after exposure of the cells to glutamate, and the neuronal viability was assessed under the action of various progestins.
Comparisons of neuroprotection against neurodegenerative insults were carried out. Efficacy was determined in connection with the protection of primary hippocampal neurons against degeneration induced by excitoxic glutamate. Hippocampal neuronal cultures grown on […] culture plates for 7d in vitro were pretreated with vehicle alone or test compounds, followed by exposure to 200 μM glutamate as previously described (13). After glutamate exposure, cultures were washed with HEPES-buffered saline solution and replaced with fresh NBM containing the test compounds or combinations. Cultures were returned to the incubator and incubated for 24 hours prior to analysis of neuronal viability using colorimetric LDH release in the media. Dose-response analysis was conducted for each of the progestins tested, and the results are shown in FIGS. 7A-F. Neuroprotective efficiency was calculated as follows: NE=(Vsample−Vglutamate)/(Vsubcontrol−Vglutamate).

[4] = system: androgenic, estrogenic and glucocorticoid responses; conditions: cited from earlier work
[5] = system: hippocampus of Sprague-Dawley ovariectomized female rats; assay: In vivo NPC proliferation and cell viability in ovariectomized rats (Western blot, FACS of BrdU+ cells); design: species or system rat
Experimental: The generalized ability of the above in vitro findings to the in vivo condition were investigated. Analyses of NPC proliferation in rats and cell viability were conducted in three-month-old Sprague-Dawley ovariectomized female rats with various of the progestins. […] In order to assess the total number of BrdU+ cells, the contralateral hippocampal hemisphere used for protein analysis was fixed and processed by FACS analysis. The total number of BrdU+ cells per each hippocampus was determined and normalized to that of vehicle control. […] In order to measure cell viability in terms of promotion of mitochondrial function and reduction in oxidative damage expression of the alpha subunit of ATP synthase-Complex V (CVα) of the mitochondrial oxidative phosphorylation pathway was assessed by Western blot analysis.

[6] = system: hippocampi of ovariectomized female Sprague Dawley rats; type: in vivo; conditions: progestin plus E2, hippocampi 24 hours after injection, FIG. 9A
Experimental: The impact of the combination of 17β-estradiol (E2) and various progestins on neurogenesis and cell viability […] was also carried out. Young adult ovariectomized female Sprague Dawley rates were thus divided into six groups and received injection of either E2 alone or E2 combined with one of the progestins. Hippocampi were isolated 24 hours later for Western blot analysis and flow cytometry to determine the impact of treatment on cell viability and neurogenesis respectively. The expression level of PCNA was assessed to determine the impact of the treatment compounds on entry into the cell cycle required for neurogenesis.

[7] = system: lysolecithin-demyelinated cerebellar slices; assay: Remyelination of lysolecithin-demyelinated cerebellar slices (MBP staining intensity); type: cell-based, rat or mouse; conditions: NES 20 μM, 3 days of incubation
Experimental: In the same animal model, cerebellar slices were cultured until myelination was complete, then incubated overnight with lysolecithin (LYSO) to produce demyelination utilizing a known technique, (15) followed by 3 days of incubation with NES 20 μM in fresh culture medium (10% penetration in slices). Slices were immunostained for MBP. […] MBP staining intensity was measured in cerebellar slices after completion of normal myelination, after demyelination with lysolecithin, and after 3 days of incubation with NES at 20 μm, RU486 at 10 μM, or NES+RU486.

[8] = PR^+/+ mice, 48 hours after MCAO

C=C1C[C@H]2[C@@H]3CCC4=CC(=O)CC[C@@H]4[C@H]3CC[C@]2(C)[C@@]1(OC(C)=O)C(C)=O [Nestorone®, 16-methylene-17α-acetoxy-19-norpregn-4-ene-3,20-dione]
promyelinating potency relative to PROG [1]: significantly more potent than PROG
concentration of equal promyelinating activity ([1]; NES at 20 μm as active as PROG at 50 μm (FIG. 1)): 20 μm
myelination measured by myelin basic protein (MBP) immunoreactivity ([1]; cerebellar slice culture): promote dose-dependent myelination
total infarct volume and ischemic lesions in cerebral cortex and subcortical structures, PR^+/+ mice (PR^lacz mice with MCAO; PR^+/+ mice): clearly reduced
increase of time on the rotarod (PR^lacz mice with MCAO; [8]): 33%
reduction of ischemic lesions in cerebral cortex (PR^lacz mice with MCAO; [8]): 22%
reduction of ischemic lesions in subcortical structures (PR^lacz mice with MCAO; [8]): 52%
reduction of total infarct volume (PR^lacz mice with MCAO; PR^+/+ mice, 48 hours after MCAO, IP at 1, 6 and 24 hours): 32%
total infarct volume and ischemic lesions in cerebral cortex and subcortical structures, PR^+/− mice (PR^lacz mice with MCAO; PR^+/− mice): not
protection against ischemic damage compared with progesterone (PR^lacz mice with MCAO; PR^−/−, PR^+/− and PR^+/+ mice, after ischemia and reperfusion): at least comparable results
efficient neuroprotective dose (PR^lacz mice with MCAO; after stroke): 0.08 mg/kg
dose improving neurological outcomes relative to that of progesterone (PR^lacz mice with MCAO; mouse, in vivo): 100 times lower
microglial density in the penumbra (neuroinflammatory responses) (PR^lacz mice with MCAO; treatment after stroke): reduced microglial density
neuronal density in the infarct and in the penumbra (PR^lacz mice with MCAO; treatment after stroke): significantly increases the neuronal density
proliferation of progenitor cells compared with progesterone ([2]; FIG. 3 and FIG. 4): as effective or even more effective than progesterone
NPC proliferation (BrdU incorporation) compared with progesterone ([2]; at 24 hours, FIGS. 6A-D): comparably efficacious at their EC100 concentrations
ratio of Bax/Bcl-2 expression (Bax/Bcl-2): no effect
neuroprotective efficacy against glutamate toxicity (LDH) ([3]; FIG. 5, NES and PROG at 10−7M): exerted the higher efficacy
neuroprotective efficacy against 200 μM glutamate (LDH release) compared with progesterone ([3]; dose-response, FIGS. 7A-F): comparable neuroprotective efficacy to that of progesterone
androgenic response [4]: no androgenic or estrogenic action at all
estrogenic response [4]: no androgenic or estrogenic action at all
glucocorticoid response [4]: does not elicit a glucocorticoid effect except at doses 2.000-fold the therapeutic dose
total number of BrdU+ cells per hippocampus ([5]; FACS, normalized to vehicle control, FIG. 8B): slightly superior to progesterone in significantly increasing Brd+ cell numbers
CDC2 protein expression ([5]; Western blot): significantly increased
PCNA expression at the protein level ([5]; Western blot, FIG. 8A): slightly superior to progesterone
expression of alpha subunit of ATP synthase-Complex V (CVα) ([5]; Western blot, FIG. 8C): increased CVA expression even greater than progesterone and levonorgestrel
PCNA expression and neural progenitor cell proliferation [6]: greatest magnitude of PCNA expression and neural progenitor cell proliferation
remyelination after lysolecithin demyelination [7]: produced remyelination
